Assay results taken from patent publication US20180028493A1, “INHIBITORS OF INDUCED MMP-1 PRODUCTION” (THE TRUSTEES OF COLUMBIA UNIVERSITY IN THE CITY OF NEW YORK, priority 2015, published 2018).
Values joined by “and” are separate entries in the source; they are usually repeats but may differ in a detail not shown here. Equal entries are not always repeated.

Key:
[1] = system: MMP-1; assay: MMP-1 expression in SAECs treated with CSE; format: cell-based
Method: FIG. 5. […] Data is presented as mean+standard error.
FIG. 8. […] SAEC treatment with 5% CSE, 10 nM Fluoxitine, 10 uM Fluoxitine, and combinations of 5% CSE and Fluoxitine. […] Data is presented as mean+standard error.
In the first experiment, SAE cells were treated with 5% CSE, 10 nM Fluoxitine, 10 uM Fluoxitine, and combinations of 5% CSE and Fluoxitine (FIG. 8). […] Data is presented as mean+standard error.

[2] = system: MMP-1
Text: FIG. 6. The expression of MMP-1 protein in BAL from smoke rabbits. […] SM-smoke without the duloxetine, SMD-smoke with duloxetine.
(§1) Rabbits were stratified into one of four groups (Unexposed, treated with vehicle, Smoke exposed, treated with vehicle, Unexposed, treated with Duloxetine and smoke exposed treated with Duloxetine. Animals are maintained on room air or smoke exposed for 16 weeks and then sacrificed. Lung lavage is taken, lungs are fixed and sectioned and protein homogenate from lungs frozen.

[3] = system: emphysema
Method: FIG. 7A. […] Duloxetine was administered 3 mg/day given once a day.
FIG. 7B. Morphometric analysis of rabbit study groups. […] NS-non-smoke without the duloxetine, NS-D-non-smoke with duloxetine, SM-smoke without the duloxetine, SM-D-smoke with duloxetine.
as §1

[4] = system: TLR-4 receptor; assay: TLR4 expression in CSE treated SAE cells; format: cell-based; conditions: SAEC, 5% CSE, 10 uM
[5] = system: PRAS40, BAD and GSK-3b; assay: Protein array analysis of cells treated with CSE; format: cell-based; conditions: CSE with Fluoxetine pretreatment vs CSE
Method: FIG. 10. Protein Array Analysis of Cells Treated with CSE compared to Cells Treated with CSE combined with Fluoxetine. […] The lines representing these three transcription factors, along with ERK 1/2, are labeled. Additionally, the lines compressed at the bottom of the figure represent the following transcription factors that were also tested: PC, NC, Stat1, Stat2, Akt (Thr308), Akt (Ser473), AMPKa, S6 Ribosomal Protein, mTOR, HSP27, p70 S6 Kinase, p53, p38, SAPK/JNK, PARP and Caspase-3.

[6] = system: IRAK; assay: Western blot of IRAK phosphorylation in CSE treated SAE cells; format: cell-based
[7] = Fluoxetine quantification in lung by chromatography after oral gavage or inhalation; format: in vivo; conditions: mice; for Concentration in lung sample: peak at retention time 17.08, replicates and average
Text: FIG. 13A. […] Mice were sacrificed, lungs lyophilized and protein homogenate prepared for chromatographic analysis.
FIG. 14A. […] Mice were sacrificed, lungs lyophilized and protein homogenate prepared for chromatographic analysis.
Mice were sacrificed, lungs lyophilized and protein homogenate prepared for chromatographic analysis.

| SMILES | MMP-1 expression ([1]; SAEC, 5% CSE, 10 uM Duloxetine, p<0.05) | MMP-1 expression ([1]; cell culture system, 10 nM) | MMP-1 expression by ELISA of lung homogenate ([2]; rabbit cigarette smoke model, 20 weeks of smoke, compound in the last four weeks) | Expression of MMP-1 protein in BAL ([2]; smoke exposed rabbits) | Mean linear intercept (morphometric analysis) ([3]; SM vs NS, NS-D, SM-D groups, p=0.0495) | Development of emphysema (H&E of lungs) ([3]; smoke exposed rabbits, 3 mg/day once a day) | TLR-4 receptor expression [4] | MMP-1 induction by CSE ([1]; SAEC, 5% CSE, 10 nM and 10 uM Fluoxetine, p<0.05) | BAD (protein array) [5] | GSK-3b (protein array) [5] | PRAS40 (protein array) [5] | Phosphorylation of IRAK (Western blot) [6] | Concentration in lung sample ([7]; inhalation 10 mg/kg) | Concentration in lung sample ([7]; inhalation 10 mg/kg, mean) [µM] | Levels of Fluoxetine within the lung, inhalation vs oral ([7]; 10 mg/kg) | Detection of Fluoxetine in the lung ([7]; 10 mg/kg oral gavage and 10 mg/kg inhaled) | Concentration in lung sample ([7]; oral gavage 10 mg/kg, 10 mg/kg) | Concentration in lung sample ([7]; oral gavage 10 mg/kg, 10 mg/kg, mean) [µM] |
| --- | --- | --- | --- | --- | --- | --- | --- | --- | --- | --- | --- | --- | --- | --- | --- | --- | --- | --- |
| CNCC[C@H](Oc1cccc2ccccc12)c1cccs1 [Duloxetine, (+)-(S)—N-Methyl-3-(naphthalen-1-yloxy)-3-(thiophen-2-yl) propan-1-amine] | decreased MMP-1 expression | block the MMP-1 expression | block the MMP-1 expression | down regulated the expression of MMP-1 in BAL | SM group had statistically significant increased mean linear intercept | development of emphysema was blocked |  |  |  |  |  |  |  |  |  |  |  |  |
| CNCCC(Oc1ccc(C(F)(F)F)cc1)c1ccccc1 (stereo not drawn) [Fluoxetine] |  |  |  |  |  |  | down regulation of TLR-4 receptor expression | MMP-1 induction was attenuated | return to baseline | return to baseline | return to baseline | suppressed | 25.81 µM and 26.2 µM and 26.45 µM | 26.16 | Inhalation resulted in higher levels | detection of Fluoxetine in the lung of mice | 3.712 µM and 3.673 µM and 3.98 µM | 3.788 |
